One block for each compound: values may come before it.
How the values were obtained:
CYP2C9 = CYP2C9 (Homo sapiens, UniProt P11712); experiment: Kinetic study of metabolite formation by recombinant CYP2C9; details: recombinant CYP2C9 incubations
[1] = cited from earlier work
[2] = cited from earlier work; remark: listed apart in the source
[3] = mouse, in vivo, po, 40 mg/kg

Sequence of CYP2C9 (P11712 whole entry): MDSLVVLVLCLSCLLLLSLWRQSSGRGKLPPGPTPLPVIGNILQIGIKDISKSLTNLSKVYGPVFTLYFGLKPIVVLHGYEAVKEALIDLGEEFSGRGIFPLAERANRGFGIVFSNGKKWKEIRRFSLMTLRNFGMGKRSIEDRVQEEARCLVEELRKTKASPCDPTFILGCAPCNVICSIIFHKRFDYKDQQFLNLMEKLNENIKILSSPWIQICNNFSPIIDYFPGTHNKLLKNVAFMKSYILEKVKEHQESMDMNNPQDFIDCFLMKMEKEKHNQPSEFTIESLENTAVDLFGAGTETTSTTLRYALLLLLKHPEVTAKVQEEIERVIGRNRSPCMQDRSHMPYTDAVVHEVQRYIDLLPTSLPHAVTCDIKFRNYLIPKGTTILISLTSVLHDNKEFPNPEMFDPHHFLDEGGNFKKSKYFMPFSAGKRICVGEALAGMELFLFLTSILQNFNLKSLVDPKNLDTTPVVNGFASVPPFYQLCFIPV

SMILES: O=C(C1CCCCC1)N1CC(=O)N2CCc3ccccc3[C@@H]2C1 [(R)-PZQ]
production of metabolite V (CYP2C9): not detected | side effects compared with racemic PZQ ([1]; single administration of 20 mg/kg vs 40 mg/kg racemic): fewer side effects | activity compared with 40 mg/kg of racemic PZQ ([1]; single administration of 20 mg/kg): same activity

SMILES: O=C(C1CCCCC1)N1CC(=O)N2CCc3ccccc3[C@H]2C1 [(S)-PZQ]
systemic levels compared with (R)-PZQ [2]: higher

Source (matrix in which detected) [3]: urine, feces
SMILES: O=C(C1CCC(O)CC1)N1CC(=O)N2CCc3ccccc3C2C1 (centres unmarked) [III, 4-OH PZQ]
